The subject of the assay is 475296-252-R-J1-PDC spheroid viability. Nature of the assay: Anticancer human tumor 475296-252-R-J1-PDC patient-derived rectal carcinoma cell line growth inhibition [PI3K]. To be noted: spheroids with HUVEC and MSC; for viability, T/C: stronger effect = lower value. The source says: Combinatorial screen of targeted agents with the PI3K inhibitors inavolisib, alpelisib, duvelisib, and copanlisib in multi-cell type tumor spheroids
A high-throughput screen of multi-cell type tumor spheroids was designed to identify active combinations of targeted small molecules and PI3K pathway inhibitors. Complex spheroids include a stromal component modeled by human endothelial cells (HUVEC) and fibroblasts modeled by human mesenchymal stem cells (MSCs). The concentration ranges selected for each drug and investigational agent were based upon clinically achievable concentrations if the clinical Cmax of the agent was known.
Compounds. The drugs and investigational agents: inavolisib (NSC800729), alpelisib (NSC765974), duvelisib (NSC772469), copanlisib (NSC816437), ipatasertib (NSC767898), afuresertib (NSC778305), talazoparib (NSC767125), sapanisertib (NSC764658), selumetinib (NSC741078), tovorafenib (DAY101, NSC766906), vemurafenib (NSC761431), ravoxertinib (NSC781343), sotorasib (NSC818433), MRTX1133 (NSC 836407), abemaciclib (NSC 768073), palbociclib (NSC758247), venetoclax (NSC 766270), SY5609 (NSC837396), enzalutamide (NSC755605), and darolutamide (NSC825331), were obtained from the National Cancer Institute (NCI) Developmental Therapeutics Program Chemical Repository. The FDA-approved anticancer drug set is available from the NCI Developmental Therapeutics Program. […] The stock solutions were prepared in dimethyl sulfoxide (DMSO, Sigma-Aldrich, St. Louis, MO, cat. D2650) at 800-fold the tested concentration and stored at -70 degrees C prior to their use. All drugs and investigational agents were tested over a range starting from a high concentration at or near the clinical Cmax and decreasing in half-log increments. If the clinical Cmax for an agent had not been determined, the highest concentration tested was 10 microM.
Cell Culture. All cells were maintained in an incubator at 37 degrees C and 5% CO2 with 95% humidity. The PDC lines were cultured according to standard operating procedures established by the NCI PDMR (https://pdmr.cancer.gov/sops/default.htm). All PDCs were thawed and cultured in Matrigel-coated flasks prepared with a working solution of 1X Ham's F-12 nutrient mix, without supplementation (Invitrogen, Waltham, MA, cat. 11765054), 100 U/mL penicillin-streptomycin (Invitrogen, cat. 15140122), and 2.5% Matrigel (Corning Inc., Corning, NY, cat. 354248) for the first three passages. The 354836-022-R-J1-PDC, 475296-252-R-J1-PDC, and 997726-040-R-J2-PDC lines were cultured in 6A media, which includes advanced DMEM/F-12 (Thermo Fisher Scientific, cat. 12634028), 10 mM HEPES (Thermo Fisher Scientific, cat. 15630080), 1X GlutaMAX supplement (Thermo Fisher Scientific, cat. 35050061), 0.1 mg/mL primocin (InvivoGen, San Diego, CA, cat. ant-pm-2), 10% defined fetal bovine serum, heat inactivated (HyClone Laboratories Inc., Logan, UT, cat. SH30070.03HI), 50% L-WRN conditioned media (ATCC, cat. CRL-3276), 1.25 mM N-Acetyl-L-cysteine (Sigma-Aldrich, cat. A9165), 10 mM nicotinamide (Sigma-Aldrich, cat. N0636), 1X B-27 supplement (Thermo Fisher Scientific, cat. 17504044), 1X N-2 supplement (Thermo Fisher Scientific, cat. 17502048), and 10 microM Y-27632 dihydrochloride (Tocris Bioscience, Bristol, United Kingdom, cat. 1254). The 624824-186-R-J2-PDC line was cultured in 6C/Colon 1B media, which includes all 6A media components plus 50 ng/mL human EGF recombinant protein (Thermo Fisher Scientific, cat. PHG0311). […]
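Also: spheroids exposed to agents for seven days before readout.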

What is called IC50 is the concentration that gives 50% inhibition. As usually defined, the viability, T/C is the result in the treated group divided by that in the control group, in per cent. With `C#Cc1c(F)ccc2cc(O)cc(-c3ncc4c(N5CC6CCC(C5)N6)nc(OCC56CCCN5CC(F)C6)nc4c3F)c12` (stereo not drawn) + COc1c(OCCCN2CCOCC2)ccc2c3n(c(=NC(=O)c4cnc(N)nc4)nc12)CCN3, the half-maximal inhibitory concentration (IC50) is, setting by setting: (curve of first compound, second compound 0.00316 µM) 7990 nM; (curve of first compound, second compound 0.01 µM) 2070 nM; (curve of first compound, second compound 0.0316 µM) 875 nM; (curve of first compound, second compound 0.1 µM) 228 nM; (curve of first compound, second compound 0.316 µM) 134 nM; (curve of first compound, second compound 1 µM) below 31.6 nM. For the same molecule, the viability, T/C is, setting by setting: (second compound 0.00316 µM, first compound 0.0316 µM) 85.9%; (second compound 0.00316 µM, first compound 0.1 µM) 87.5%; (second compound 0.00316 µM, first compound 0.316 µM) 79.7%; (second compound 0.00316 µM, first compound 1 µM) 75.3%; (second compound 0.00316 µM, first compound 3.16 µM) 59.2%; (second compound 0.00316 µM, first compound 10 µM) 47.8%. The viability, T/C was 89.5% (second compound 0.01 µM, first compound 0.0316 µM); 90.8% (second compound 0.01 µM, first compound 0.1 µM); 68% (second compound 0.01 µM, first compound 0.316 µM); 57.2% (second compound 0.01 µM, first compound 1 µM); 48.9% (second compound 0.01 µM, first compound 3.16 µM); 39.9% (second compound 0.01 µM, first compound 10 µM). In addition, the viability, T/C was 80.6% (second compound 0.0316 µM, first compound 0.0316 µM); 76.4% (second compound 0.0316 µM, first compound 0.1 µM); 65.4% (second compound 0.0316 µM, first compound 0.316 µM); 46.1% (second compound 0.0316 µM, first compound 1 µM); 31.1% (second compound 0.0316 µM, first compound 3.16 µM); 14.3% (second compound 0.0316 µM, first compound 10 µM). The viability, T/C reads like this: (second compound 0.1 µM, first compound 0.0316 µM) 67%; (second compound 0.1 µM, first compound 0.1 µM) 68.9%; (second compound 0.1 µM, first compound 0.316 µM) 40.7%; (second compound 0.1 µM, first compound 1 µM) 23%; (second compound 0.1 µM, first compound 3.16 µM) 8.13%; (second compound 0.1 µM, first compound 10 µM) 3.98%. The viability, T/C (second compound 0.316 µM, first compound 0.0316 µM) was 64.5%; the viability, T/C (second compound 0.316 µM, first compound 0.1 µM) was 57.4%; the viability, T/C (second compound 0.316 µM, first compound 0.316 µM) was 28.3%; the viability, T/C (second compound 0.316 µM, first compound 1 µM) is 7.5%; the viability, T/C (second compound 0.316 µM, first compound 3.16 µM) is 3.69%; the viability, T/C (second compound 0.316 µM, first compound 10 µM) was 2.51%. The viability, T/C reads like this: (second compound 1 µM, first compound 0.0316 µM) 45.9%; (second compound 1 µM, first compound 0.1 µM) 34.2%; (second compound 1 µM, first compound 0.316 µM) 21.3%; (second compound 1 µM, first compound 1 µM) 6.91%; (second compound 1 µM, first compound 3.16 µM) 5.05%; (second compound 1 µM, first compound 10 µM) 4.55%.

`Cn1nccc1Nc1nccc(-c2ccn(C(CO)c3ccc(Cl)c(F)c3)c(=O)c2)n1` (stereo not drawn): the viability, T/C is 104% [middle of 4 runs] (compound 0.0316 µM); 96.6% [middle of 4 runs] (compound 0.1 µM); 102% [middle of 4 runs] (compound 0.316 µM); 89.5% [middle of 4 runs] (compound 1 µM); 82.3% [middle of 4 runs] (compound 10 µM). Also, the half-maximal inhibitory concentration (IC50) (curve of compound) is above 10000 nM.

The values above are taken from PubChem BioAssay AID1963980 (Molecular Pharmacology Branch, DTP, NCI, 2024).
